The text below walks through data of ChEMBL document CHEMBL1201862, “PubChem BioAssay data set” (2004).

Test in all cases: NCI tumour cell line growth inhibition, 48 h
In experiment [1] the test system is HL-60.
Experiment [2] deals with A498.
The test system of experiment [3] is KM12.
Experiment [4] deals with KM-20L2.
Experiment [5] concerns NCI-H226.
The test system of experiment [6] is NCI-H522.
Experiment [7] has as its system EKVX.
Experiment [8] has as its system NCI-H23.
Experiment [9] concerns HT-29.
The test system of experiment [10] is COLO 205.
Experiment [11] has as its system SNB-78.
The subject of experiment [12] is TK-10.
Experiment [13] concerns SK-OV-3.
Experiment [14] relates to HOP-92.
Experiment [15] relates to Malme-3M.
Experiment [16] concerns SNB-75.
In experiment [17] the test system is SK-MEL-5.
Experiment [18] has as its system SR.
For experiment [19], the system named is LXFL 529.
The subject of experiment [20] is MDA-N.

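Method: 48-hour compound exposure of cells in 96-well plates, five concentrations, linear interpolation of endpoints. The concentration for 50% growth inhibition is given as GI50.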 Calls of active or inactive are those of the source. No stated cut-off is given here; in the data, active = GI50 up to about 1.1 µM and inactive = higher.

For `Cc1cc(C)n2c(-c3ccccc3)c(C)cc2n1`, the GI50 in experiment [1] was 5.68 µM (inactive); in [2], 35.2 µM (inactive); in experiment [3], 60.8 µM (inactive); in experiment [4] it was 29 µM (inactive); in experiment [5], 36.2 µM (inactive); in experiment [6], 21.2 µM (inactive). The GI50 was 64 µM (inactive) in experiment [7]; 41.1 µM (inactive) in [8]; 25.8 µM (inactive) in experiment [9]; 43.5 µM (inactive) in experiment [10]; 94.6 µM (inactive) in experiment [11]; > 100 µM (inactive) in experiment [12]. For the same compound, the GI50 in experiment [13] is 60.3 µM (inactive); in [14], 53.2 µM (inactive); in experiment [15] it was 49.4 µM (inactive); in experiment [16], 23.1 µM (inactive); in experiment [17] it was 26.9 µM (inactive).
Consider `N#CC(C#N)=C(N)/C(C#N)=C\c1ccnc2ccccc12`, for which the GI50 in experiment [1] was 2.01 µM (inactive); in experiment [3], 25.7 µM (inactive); in [6] it was 30 µM (inactive); in experiment [8] it was 19.9 µM (inactive); in [9] it was 24.8 µM (inactive); in experiment [10], > 100 µM (inactive). Also, the GI50 in experiment [11] is 27.1 µM (inactive); in [12], 35.2 µM (inactive); in [14], 23 µM (inactive); in experiment [18], 16.4 µM (inactive); in experiment [15], 24.8 µM (inactive); in [16] it was 31.4 µM (inactive). In addition, the GI50 is 17.2 µM (inactive) in [19] and 14.6 µM (inactive) in [17].
Turning to `CCOC(=O)C1=C(C)NC2=C(C(=O)N(c3ccccc3)C2c2ccccc2)C1c1ccccc1` (stereo not drawn), the GI50 is 26.1 µM (inactive) in experiment [1]; 17.1 µM (inactive) in [3]; 19.9 µM (inactive) in [5]; 12.6 µM (inactive) in experiment [6]; 17.9 µM (inactive) in [7]; 17.2 µM (inactive) in [8]. The GI50 in experiment [9] was 19.9 µM (inactive); in [10], 18.7 µM (inactive); in experiment [11] it was 19.4 µM (inactive); in experiment [12], 18.9 µM (inactive); in [13], 17.1 µM (inactive); in [14] it was 11.2 µM (inactive). Besides, the GI50 is 16.9 µM (inactive) in experiment [18]; 17.9 µM (inactive) in experiment [15]; 12.3 µM (inactive) in experiment [16]; 16 µM (inactive) in experiment [19]; 15.1 µM (inactive) in [17].
As to `COc1cc(-c2nn3c(=O)n(-c4ccc(Cl)cc4)c(=O)nc3s2)cc(OC)c1OC`, the GI50 in experiment [1] was > 50 µM (inactive); in [2], > 67 µM (inactive); in [3], > 65.8 µM (inactive); in [4], > 100 µM (inactive); in experiment [5] it was > 55.7 µM (inactive); in [6], > 58.2 µM (inactive). For the same compound, the GI50 in experiment [7] is > 86.5 µM (inactive); in [8] it was 37.6 µM (inactive); in experiment [9], > 100 µM (inactive); in experiment [10], > 100 µM (inactive); in [11], 19.4 µM (inactive); in [12] it was 8.55 µM (inactive). The GI50 was > 50 µM (inactive) in [13]; 15.5 µM (inactive) in experiment [14]; 65.9 µM (inactive) in experiment [15]; 8.24 µM (inactive) in experiment [16]; > 52.4 µM (inactive) in [17].
`N#CC(Cl)CS(=O)(=O)c1ccccc1` (stereo not drawn): the GI50 is 1.53 µM (inactive) in [1]; 13.6 µM (inactive) in experiment [2]; 17.5 µM (inactive) in [3]; 18.7 µM (inactive) in experiment [4]; 22.1 µM (inactive) in experiment [5]; 0.681 µM (active) in experiment [6]. The GI50 in [7] is 18.6 µM (inactive); in experiment [8], 16.3 µM (inactive); in [9], 7.66 µM (inactive); in [10] it was 1.75 µM (inactive); in experiment [11], 21.1 µM (inactive); in experiment [20] it was 8.09 µM (inactive). For the same compound, the GI50 in [12] is 3.7 µM (inactive); in experiment [13] it was 19.5 µM (inactive); in experiment [14], 2.02 µM (inactive); in [18], 1.8 µM (inactive); in experiment [15] it was 2.07 µM (inactive); in [16], 15.2 µM (inactive). The GI50 in experiment [17] was 15.8 µM (inactive).
As to `C=C(c1ccccc1)c1cc2c(=O)[nH]ccc2n1C`, the GI50 in experiment [1] is 16.3 µM (inactive); in experiment [3] it was 34.4 µM (inactive); in experiment [4], 23.3 µM (inactive); in experiment [6] it was 16.3 µM (inactive); in [7] it was 39.4 µM (inactive); in experiment [8] it was 30.1 µM (inactive). Further, the GI50 in experiment [10] is 15.9 µM (inactive); in [11], 48.5 µM (inactive); in experiment [12], 55.3 µM (inactive); in [13], 26 µM (inactive); in experiment [14], 14.2 µM (inactive); in [15], 30.1 µM (inactive). In addition, the GI50 was 11.9 µM (inactive) in experiment [16], 35.6 µM (inactive) in experiment [19] and 26 µM (inactive) in experiment [17].
`Clc1ccc(-c2nnc(-c3nn(-c4ccccc4)c4nc5ccccc5nc34)o2)cc1`: the GI50 in experiment [1] is 22.5 µM (inactive); in [3], > 100 µM (inactive); in [4], > 100 µM (inactive); in [5] it was 76 µM (inactive); in experiment [6], > 100 µM (inactive); in experiment [7] it was > 100 µM (inactive). Moreover, the GI50 in [8] was 42.4 µM (inactive); in experiment [9], > 100 µM (inactive); in [10], > 100 µM (inactive); in experiment [11] it was > 100 µM (inactive); in experiment [12] it was > 100 µM (inactive); in experiment [13], > 100 µM (inactive). The GI50 in experiment [15] is 84.3 µM (inactive); in experiment [16], 95.1 µM (inactive); in experiment [19], 27.2 µM (inactive); in experiment [17], 12.9 µM (inactive).
Take `C(=C\C(Sc1ccccc1)c1ccccc1)/NNC1=NN=C(c2ccccc2)C(c2ccccc2)N1` (stereo not drawn): the GI50 was 15.2 µM (inactive) in [1]; 58.3 µM (inactive) in [3]; 24.8 µM (inactive) in experiment [4]; 64.4 µM (inactive) in experiment [5]; 33.7 µM (inactive) in experiment [6]; 32.9 µM (inactive) in experiment [7]. Moreover, the GI50 in experiment [8] was 31.2 µM (inactive); in experiment [9] it was 12 µM (inactive); in experiment [10], 32.2 µM (inactive); in [11], > 100 µM (inactive); in experiment [12] it was 61.2 µM (inactive); in experiment [13], > 100 µM (inactive). The GI50 was 16.3 µM (inactive) in [14]; 25.9 µM (inactive) in experiment [18]; 50 µM (inactive) in experiment [15]; > 100 µM (inactive) in experiment [16]; 45.9 µM (inactive) in experiment [17].
`CC1CCC2(NC1)OC1CC3[C@@H]4CC=C5C=CCC[C@]5(C)C4CC[C@]3(C)C1C2C` (stereo partly drawn): the GI50 in experiment [1] was 12.3 µM (inactive); in experiment [2], 69.7 µM (inactive); in experiment [3], 18.9 µM (inactive); in [4], 17.9 µM (inactive); in [5] it was 35.2 µM (inactive); in experiment [7], 19.6 µM (inactive). The GI50 in experiment [8] is 32.3 µM (inactive); in experiment [9], 15.1 µM (inactive); in [10], 17.3 µM (inactive); in experiment [11], 39.4 µM (inactive); in experiment [12], 15.3 µM (inactive); in experiment [13], 25.8 µM (inactive). In addition, the GI50 in experiment [14] was 19.7 µM (inactive); in [15], 18.5 µM (inactive); in experiment [16], 15.5 µM (inactive); in [17], 15.3 µM (inactive).
